The record followed here is ChEMBL document CHEMBL1139718, “Design, total synthesis, and biological evaluation of neodysiherbaine A derivative as potential probes” (Bioorg Med Chem Lett, 2006).

Test [1] is described as follows: Displacement of [3H]kainic acid from Kainate receptor in rat synaptic membrane. It is filed as cell membranes. A general note: Displacement assays read how much labelled ligand stays bound in the presence of the test substance.
Test [2] in a line: Displacement of [3H]AMPA from AMPA receptor in rat synaptic membrane. It is filed as cell membranes.
In a further test the test system is Mus musculus. The experiment in a line: Epileptogenic activity in mouse, icv. It is filed as functional.

What is called Ki is a dissociation constant, usually derived from enzyme kinetics or from competition with a known ligand. A high value points to a looser hold on the target. With `N[C@@H](C[C@]1(C(=O)O)C[C@H]2O[C@H](CO)[C@@H](O)[C@@H](O)[C@H]2O1)C(=O)O` [10-HYDROXY-METHYL-NEODYSIHERBAINE A], the values for the inhibition constant Ki in test [1] and in test [2] were 790 nM and 153 nM, respectively. In the test with Mus musculus, this compound returned an ED50 of 110 pmol.
Regarding `CN[C@H]1[C@H]2O[C@@](C[C@H](N)C(=O)O)(C(=O)O)C[C@H]2OC[C@H]1O` [DYSIHERBAINE], the inhibition constant Ki amounted to 26 nM in test [1] and 153 nM in test [2]. Moreover, in the test with Mus musculus, the ED50 came to 13 pmol.
The corresponding values for `N[C@@H](C[C@]1(C(=O)O)C[C@H]2OC[C@@H](O)[C@@H](O)[C@H]2O1)C(=O)O` [NEODYSIHERBAINE A] are 52 nM, 151 nM and 16 pmol.
